This is an account of results in patent publication US10124004B2, “Pyrido[3,4-d]pyrimidine derivative and pharmaceutically acceptable salt thereof” (Teijin Pharma Limited, priority 2015, dated 2018).

Structures are written as SMILES. pIC50: −log10 of the molar value.

One assay addresses T1, CDK4/cyclin D3 (Homo sapiens, UniProt P11802).
T1 construct: purchased Carna Biosciences, Inc. QS S Assist CDK4/Cyclin D3_FP Kit
Description: Human CDK4/cyclin D3 inhibitory activity (QS S Assist CDK4/Cyclin D3_FP Kit, IMAP fluorescence polarization). It counts as biochemical. To be noted: Human CDK4/cyclin D3 inhibitory activity; read-out: CDK4 Activity symbol. An outline of the steps: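 IMAP fluorescence polarization kit: CDK4/cyclin D3 at 12.5-25 ng/well with kit ATP/substrate/metal mix in 20 mM HEPES pH 7.4, 0.01% Tween20, 2 mM DTT, 45 min at room temperature. FP read at 485/535 nm after 30 min binding; IC50 from dose-response fit of percent inhibition versus enzyme and no-enzyme controls.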
A general note: In fluorescence polarisation assays a small probe gives low polarisation when free and higher when bound to something large.

The next assay concerns the target T2, CDK2/cyclin A2 (Homo sapiens, UniProt P24941).
T2 construct: purchased Carna Biosciences, Inc. QS S Assist CDK2/Cyclin A2_FP Kit
Description: Human CDK2/cyclin A2 inhibitory activity (QS S Assist CDK2/Cyclin A2_FP Kit, IMAP fluorescence polarization). Format: biochemical. Conditions: Human CDK2/cyclin A2 inhibitory activity; read-out: CDK2 Activity symbol. An outline of the steps:
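Kinase activity read as fluorescence polarization (485/535 nm) after phosphorylated fluorescent substrate binds IMAP reagent (30 min, RT, dark). Enzyme (2.5 ng/well) reacted 60 min at RT with ATP/substrate/metal in HEPES pH 7.4 buffer with Tween 20 and DTT; no-enzyme wells define 0% activity; IC50 by curve fit.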

T1 sequence (P11802 whole entry): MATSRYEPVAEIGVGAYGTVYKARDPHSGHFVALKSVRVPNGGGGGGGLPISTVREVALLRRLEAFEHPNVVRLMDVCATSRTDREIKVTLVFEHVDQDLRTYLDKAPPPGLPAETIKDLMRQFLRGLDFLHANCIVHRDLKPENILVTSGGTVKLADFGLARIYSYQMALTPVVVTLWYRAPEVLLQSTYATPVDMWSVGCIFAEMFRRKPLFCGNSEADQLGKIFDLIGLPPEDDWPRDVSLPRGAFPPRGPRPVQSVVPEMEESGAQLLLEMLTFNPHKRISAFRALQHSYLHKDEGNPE
T1 sequence (P30281 whole entry partner): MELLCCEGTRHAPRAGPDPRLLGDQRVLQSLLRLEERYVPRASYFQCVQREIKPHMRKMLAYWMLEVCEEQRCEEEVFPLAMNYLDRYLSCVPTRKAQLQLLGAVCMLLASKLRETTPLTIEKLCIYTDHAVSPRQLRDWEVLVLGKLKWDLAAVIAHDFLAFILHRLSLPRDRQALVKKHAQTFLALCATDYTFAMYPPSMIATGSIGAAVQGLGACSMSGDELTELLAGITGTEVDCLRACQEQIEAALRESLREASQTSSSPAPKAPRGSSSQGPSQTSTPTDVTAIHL

As for `FC(F)c1cc2cnc(Nc3ccc(N4CCNCC4)nn3)nc2c(NC2CCOCC2)n1` [Compound 365], the pIC50 was more than 8.00 at CDK4/cyclin D3 and not above 7.00 at CDK2/cyclin A2.
For `CN(C)CCOc1ccc(Nc2ncc3cc(C(F)F)nc(NC4CCCOC4)c3n2)nc1` (stereo not shown) [Compound 366], in that order: more than 8.00 and not above 7.00.
For `C[C@@H](O)c1nc(N[C@H]2CCCOC2)c2nc(Nc3ccc(N4CCNCC4)nn3)ncc2c1Cl` [Compound 367], in that order: more than 8.00 and not above 7.00.
In the case of `C[C@@H](O)c1nc(N[C@H]2CC[C@H](O)CC2)c2nc(Nc3ccc(N4CCNCC4)nn3)ncc2c1Cl` [Compound 368], the pIC50 at CDK4/cyclin D3 is more than 8.00; on CDK2/cyclin A2, not above 7.00.
For `C[C@@H](O)c1nc(N[C@H]2CCCOC2)c2nc(Nc3ccc(CN4CCNCC4)cn3)ncc2c1Cl` [Compound 369], in that order: more than 8.00 and not above 7.00.
In the case of `C[C@@H](O)c1nc(N[C@H]2CC[C@H](O)CC2)c2nc(Nc3ccc(CN4CCNCC4)cn3)ncc2c1Cl` [Compound 370], the pIC50 was more than 8.00 on CDK4/cyclin D3 and not above 7.00 at CDK2/cyclin A2.
As for `CO[C@H](C)c1cc2cnc(Nc3ccc(N4CCNC[C@@H]4C)nn3)nc2c(NC(C)C)n1` [Compound 371], the pIC50 is more than 8.00 at CDK4/cyclin D3 and not above 7.00 at CDK2/cyclin A2.
Consider `CO[C@H](C)c1cc2cnc(Nc3ccc(N4CCNC[C@H]4C)nn3)nc2c(NC(C)C)n1` [Compound 372], for which the pIC50 was more than 8.00 at CDK4/cyclin D3 and not above 7.00 on CDK2/cyclin A2.
For the compound `COCC(C)(C)Nc1nc([C@@H](C)O)cc2cnc(Nc3cnc(N4CCNCC4)cn3)nc12` [Compound 373], the values for the pIC50 at CDK4/cyclin D3 and on CDK2/cyclin A2 were more than 8.00 and not above 7.00, respectively.
For the compound `CO[C@H](C)c1cc2cnc(Nc3ccc(N4CCNC5(CC5)C4)nn3)nc2c(N[C@H]2CCCOC2)n1` [Compound 376], the pIC50 at CDK4/cyclin D3 was more than 8.00; at CDK2/cyclin A2, not above 7.00.
With `CO[C@H](C)c1cc2cnc(Nc3ccc(CN4CCNC5(CC5)C4)cn3)nc2c(N[C@H]2CCCOC2)n1` [Compound 378], the pIC50 was more than 8.00 at CDK4/cyclin D3 and not above 7.00 at CDK2/cyclin A2.
Consider `CC(C)Nc1nc([C@@H](C)O)cc2cnc(Nc3ccc(N4CCNC5(CC5)C4)nn3)nc12` [Compound 379], for which the results for the pIC50 on CDK4/cyclin D3 and at CDK2/cyclin A2 were more than 8.00 and not above 7.00, respectively.
Regarding `FC(F)c1cc2cnc(Nc3ccc(CN4CCNCC4)cn3)nc2c(N[C@H]2CCCOC2)n1` [Compound 380], the pIC50 was more than 8.00 on CDK4/cyclin D3 and not above 7.00 at CDK2/cyclin A2.
For `FC(F)c1cc2cnc(Nc3ccc(N4CCNCC4)nn3)nc2c(N[C@H]2CCCOC2)n1` [Compound 381], in that order: more than 8.00 and not above 7.00.
Take `CN(C)CCOc1ccc(Nc2ncc3cc(C(F)F)nc(N[C@H]4CCCOC4)c3n2)nc1` [Compound 382]: the pIC50 at CDK4/cyclin D3 is more than 8.00; at CDK2/cyclin A2, not above 7.00.
`O=C(O)[C@H]1CC[C@H](Nc2nc(C(F)F)cc3cnc(Nc4ccc(CN5CCNCC5)cn4)nc23)CC1` [Compound 383]: the pIC50 at CDK4/cyclin D3 was 7.00 to 8.00; at CDK2/cyclin A2, not above 7.00.
For `O=C(O)[C@H]1CC[C@H](Nc2nc(C(F)F)cc3cnc(Nc4ccc(N5CCNCC5)nn4)nc23)CC1` [Compound 384], in that order: 7.00 to 8.00 and not above 7.00.
As for `CN(C)CCOc1ccc(Nc2ncc3cc(C(F)F)nc(N[C@H]4CC[C@H](C(=O)O)CC4)c3n2)nc1` [Compound 385], the pIC50 at CDK4/cyclin D3 is more than 8.00; on CDK2/cyclin A2, not above 7.00.
`O[C@H]1CC[C@H](Nc2nc(C(F)F)cc3cnc(Nc4ccc(CN5CCNCC5)cn4)nc23)CC1` [Compound 386]: the pIC50 is more than 8.00 on CDK4/cyclin D3 and not above 7.00 at CDK2/cyclin A2.
For `O[C@H]1CC[C@H](Nc2nc(C(F)F)cc3cnc(Nc4ccc(N5CCNCC5)nn4)nc23)CC1` [Compound 387], in that order: more than 8.00 and 7.00 to 8.00.
For the compound `CN(C)CCOc1ccc(Nc2ncc3cc(C(F)F)nc(N[C@H]4CC[C@H](O)CC4)c3n2)nc1` [Compound 388], the pIC50 at CDK4/cyclin D3 was more than 8.00; on CDK2/cyclin A2 it was not above 7.00.
For `CO[C@H](C)c1cc2cnc(Nc3ccc(C(=O)N4CCNCC4)cn3)nc2c(NC(C)C)n1` [Compound 389], in that order: more than 8.00 and 7.00 to 8.00.
On to `COC1CCC(Nc2nc(C(C)OC)cc3cnc(Nc4ccc(CN5CCNCC5)cn4)nc23)CC1` (stereo not shown) [Compound 395], for which the pIC50 is more than 8.00 at CDK4/cyclin D3 and not above 7.00 at CDK2/cyclin A2.
Turning to `COC(C)c1cc2cnc(Nc3ccc(CN4CCNCC4)cn3)nc2c(NCC2CCCOC2)n1` (stereo not shown) [Compound 400], the pIC50 on CDK4/cyclin D3 is more than 8.00; at CDK2/cyclin A2, not above 7.00.
As to `COC(C)c1cc2cnc(Nc3ccc(CN4CCNCC4)cn3)nc2c(NC2CCC(C)(C)OC2)n1` (stereo not shown) [Compound 432], the pIC50 at CDK4/cyclin D3 was more than 8.00; on CDK2/cyclin A2, not above 7.00.
In the case of `COC(C)c1cc2cnc(Nc3ccc(CN4CCNCC4)cn3)nc2c(SC(C)C)n1` (stereo not shown) [Compound 456], the pIC50 is more than 8.00 on CDK4/cyclin D3 and not above 7.00 on CDK2/cyclin A2.
As to `CO[C@H](C)c1cc2cnc(Nc3ccc(N4CCN[C@@H](C)C4=O)cn3)nc2c(NC(C)C)n1` [Compound 463], the figures for the pIC50 on CDK4/cyclin D3 and on CDK2/cyclin A2 were more than 8.00 and not above 7.00, respectively.
On to `CO[C@H](C)c1cc2cnc(Nc3ccc(N4CC[C@@H](N)[C@@H](F)C4)cn3)nc2c(NC(C)C)n1` [Compound 466], for which the pIC50 on CDK4/cyclin D3 was more than 8.00; on CDK2/cyclin A2, not above 7.00.
For `CO[C@H](C)c1cc2cnc(Nc3ccc(N4CC[C@H](N)[C@@H](F)C4)cn3)nc2c(NC(C)C)n1` [Compound 467], the figures for the pIC50 on CDK4/cyclin D3 and at CDK2/cyclin A2 were more than 8.00 and not above 7.00, respectively.
On to `CC(C)Nc1nc([C@@H](C)O)cc2cnc(Nc3ccc(OCCN(C)C)nn3)nc12` [Compound 474], for which the pIC50 at CDK4/cyclin D3 was more than 8.00; at CDK2/cyclin A2, not above 7.00.
Consider `CC(C)Nc1nc([C@@H](C)O)cc2cnc(Nc3ccc(N4CCC(N(C)C)CC4)nn3)nc12` [Compound 491], for which the pIC50 at CDK4/cyclin D3 was more than 8.00; at CDK2/cyclin A2, not above 7.00.
With `CO[C@H](C)c1cc2cnc(Nc3ccc(N4CCCNCC4=O)cn3)nc2c(NC(C)C)n1` [Compound 492], the pIC50 on CDK4/cyclin D3 is more than 8.00; at CDK2/cyclin A2 it was 7.00 to 8.00.
On to `CNC1CCN(c2ccc(Nc3ncc4cc([C@@H](C)O)nc(NC(C)C)c4n3)nn2)CC1` [Compound 497], for which the pIC50 at CDK4/cyclin D3 was more than 8.00; on CDK2/cyclin A2 it was not above 7.00.
As to `CO[C@H](C)c1cc2cnc(Nc3ccc(N4CCNCCC4=O)cn3)nc2c(NC(C)C)n1` [Compound 499], the figures for the pIC50 on CDK4/cyclin D3 and at CDK2/cyclin A2 were more than 8.00 and 7.00 to 8.00, respectively.
With `COC(C)c1cc2cnc(Nc3ccc(N4CC5CCC(C4)N5)cn3)nc2c(NC(C)C)n1` (stereo not shown) [Compound 501], the pIC50 on CDK4/cyclin D3 was more than 8.00; at CDK2/cyclin A2 it was not above 7.00.
Regarding `CC(C)Nc1nc([C@@H](C)O)cc2cnc(Nc3ccc(N4CCN[C@@H](C)C4=O)cn3)nc12` [Compound 507], the pIC50 on CDK4/cyclin D3 was more than 8.00; on CDK2/cyclin A2 it was not above 7.00.
With `CO[C@H](C)c1cc2cnc(Nc3ccc(CN4CCN(CCO)CC4)cn3)nc2c(NC(C)C)n1` [Compound 508], the pIC50 at CDK4/cyclin D3 is more than 8.00; on CDK2/cyclin A2, not above 7.00.
Regarding `CNCC(F)COc1ccc(Nc2ncc3cc([C@@H](C)OC)nc(NC(C)C)c3n2)nc1` (stereo partly shown) [Compound 509], the pIC50 at CDK4/cyclin D3 was more than 8.00; at CDK2/cyclin A2 it was not above 7.00.
Take `CC(C)Nc1nc([C@@H](C)O)cc2cnc(Nc3ccc(N4CCN(CCO)CC4)nn3)nc12` [Compound 510]: the pIC50 on CDK4/cyclin D3 was more than 8.00; on CDK2/cyclin A2 it was not above 7.00.
`CO[C@H](C)c1cc2cnc(Nc3ccc(N4CC5(CNC5)CC4=O)cn3)nc2c(NC(C)C)n1` [Compound 511]: the pIC50 on CDK4/cyclin D3 was more than 8.00; at CDK2/cyclin A2 it was 7.00 to 8.00.
As to `CNC1CC2(C1)CN(c1ccc(Nc3ncc4cc([C@@H](C)OC)nc(NC(C)C)c4n3)nc1)C2` [Compound 512], the pIC50 was more than 8.00 at CDK4/cyclin D3 and not above 7.00 at CDK2/cyclin A2.
Consider `CC(C)Nc1nc([C@@H](C)O)cc2cnc(Nc3ccc(CC(=O)N4CCNCC4)cn3)nc12` [Compound 519], for which the pIC50 on CDK4/cyclin D3 was more than 8.00; on CDK2/cyclin A2, not above 7.00.
Regarding `CC(C)Nc1nc([C@@H](C)O)cc2cnc(Nc3ccc(N4CCCNCC4=O)cn3)nc12` [Compound 521], the pIC50 is more than 8.00 on CDK4/cyclin D3 and 7.00 to 8.00 at CDK2/cyclin A2.
In the case of `CC(C)Nc1nc([C@@H](C)O)cc2cnc(Nc3ccc(N4CCNCCC4=O)cn3)nc12` [Compound 522], the results for the pIC50 on CDK4/cyclin D3 and at CDK2/cyclin A2 were more than 8.00 and 7.00 to 8.00, respectively.
Turning to `CC(C)Nc1nc([C@@H](C)O)cc2cnc(Nc3ccc(N4CC5(CC(O)C5)C4)nn3)nc12` [Compound 524], the pIC50 at CDK4/cyclin D3 was more than 8.00; at CDK2/cyclin A2 it was not above 7.00.
In the case of `CNCCCOc1ccc(Nc2ncc3cc([C@@H](C)OC)nc(NC(C)C)c3n2)nc1` [Compound 526], the pIC50 on CDK4/cyclin D3 was more than 8.00; on CDK2/cyclin A2 it was not above 7.00.
Consider `CNCCOc1ccc(Nc2ncc3cc([C@@H](C)O)nc(NC(C)C)c3n2)nc1` [Compound 529], for which the figures for the pIC50 at CDK4/cyclin D3 and at CDK2/cyclin A2 were more than 8.00 and not above 7.00, respectively.
Take `CC(C)Nc1nc([C@@H](C)O)cc2cnc(Nc3ccc(N4CCN(C)CC4)nn3)nc12` [Compound 532]: the pIC50 was more than 8.00 at CDK4/cyclin D3 and not above 7.00 at CDK2/cyclin A2.
For `CC(C)Nc1nc([C@@H](C)O)cc2cnc(Nc3ccc(CN4CCNC5(CC5)C4)cn3)nc12` [Compound 537], the pIC50 on CDK4/cyclin D3 was more than 8.00; on CDK2/cyclin A2, not above 7.00.
For `CC(C)Nc1nc([C@@H](C)O)cc2cnc(Nc3ccc(CN4CCN(C)CC4)cn3)nc12` [Compound 548], in that order: more than 8.00 and not above 7.00.
